Laboratory results as given in a melting point compilation (Tetko et al.; mined from patent text by program, amines drawn as free bases though some values may be those of a salt).

| SMILES | melting point [°C] |
| --- | --- |
| CC1NC(=O)NN=C1c1ccc2c(c1)CCC(=O)N2CCO (stereo not drawn) | 237 to 243 |
| C1=C(c2cc3ccccc3s2)CCC2(C1)CCNCC2 | 107 to 110 |
| CC(C)c1ccnc(C(C)C)c1N | 35 to 39 |
| COc1nc(C)cnc1N(C(=O)OCC(C)C)S(=O)(=O)c1cccnc1-c1ccc(O)cc1 | 144 to 146 |
| O=C1/C(=C/c2c[nH]c3ncc(Cl)cc23)N=C(Oc2ccccc2)N1c1ccccc1 | 287 |
| CCOC(=O)C(=O)Nc1cccnc1 | 98 to 100 |
| Cc1cnc2c(=O)[nH]c3ccc(Cl)cc3n12 | > 300 |
| COC1C(O)C(CO)OC1n1cnc2c(NC3CC=CCC3c3cccs3)ncnc21 (stereo not drawn) | 86 to 89 |
| CS(=O)(=O)c1cccc(Nc2cc(-c3ccc(C(F)(F)F)cc3)ncn2)c1 | 204 to 205 |
| N#Cc1cc(OCF)cc([N+](=O)[O-])c1Cl | 27 to 28 |
| Cn1c(Oc2ccc(N=C=S)cc2)nc2ccccc21 | 59 to 61 |
| Oc1ccccc1-c1nc2sc(-c3ccccc3O)nc2s1 | 300 |
| CC(C)n1c(N2CCN(C)CC2)nc2cc(Cl)c(N)cc21 | 192 to 193 |
| c1ccc2c(c1)Cc1c(-c3ccc(OCCN4CCOCC4)cc3)n[nH]c1-2 | 175 to 176 |
| Nc1ccc(F)cc1CCN1CCN(c2nsc3ccccc23)CC1 | 115 |
| CCOC(=O)C(C)N(c1ccc(S(=O)(=O)c2ccccc2)cc1C(F)(F)F)S(C)(=O)=O (stereo not drawn) | 121 |
| c1ccc(-n2c(-c3cccnc3)nc3ccccc32)cc1 | 110 to 112 |
| FC(F)(F)c1cc(C(F)(F)F)n(-c2ccc(Nc3noc4ccccc34)cc2)n1 | 209 to 210 |
| CCC(C(C)C)C(CN)CC(=O)O (stereo not drawn) | 170 to 180 |
| Cc1cccc(Cl)c1OC1CN(C(=O)N(C)C)C1 | 46 to 47 |
| COC[C@H]1CN(c2ccc3nc([C@@H](O)CCC#N)sc3c2)C(=O)O1 | 74 to 75 |
| O=c1[nH]nnn1-c1cc(C(F)(F)F)cc(C(F)(F)F)c1 | 145 to 147 |
| C[C@@H]1Cc2ccsc2[C@H](C)N1CCNS(=O)(=O)c1ccc([N+](=O)[O-])cc1 (relative stereo) | 116 to 119 |
| CNC(SC)=C(C#N)C#N | 119 to 120 |
| C[C@@H]1Cc2ccsc2[C@H](C)N1CCNC(=O)c1ccc(C(F)(F)F)cc1 (relative stereo) | 88 to 91 |

| SMILES | melting point [°C] |
| --- | --- |
| COC(=O)c1cc(C)cnc1C1=NC(C)(C(C)C)C(=O)N1C(=O)c1ccccc1 (stereo not drawn) | 104 to 106 |
| O=S(CCc1ccccc1)c1nc2cnccc2[nH]1 (stereo not drawn) | 171 to 174 |
| COC(OC)c1cccc(C=Cc2cccc(-n3cccc3)c2)c1 | 108 to 110 |
| Cc1cc2c(cc1C)C(c1ccccc1)(C(F)(F)C(F)(F)F)c1cc(C)c(C)cc1O2 | 178 to 179 |
| CCOc1ccccc1OCC(O)CNCCNc1cnn(C)c(=O)c1Cl (stereo not drawn) | 120 |
| COc1cc2c(cc1OC)C1=C(CC2)NC(=O)CC1 | 270 to 271 |
| Cc1ccccc1-c1cc(=O)c(C)c(-c2ccccc2)n1-c1ccccc1 | 188 to 191 |
| COc1cccc(NC(=O)NC2N=C(c3ccccc3)c3cccc(C)c3N(C)C2=O)c1 (stereo not drawn) | 215 to 217 |
| COc1ccc(C(=O)Cc2cccs2)cc1 | 44 to 45.5 |
| C=Cc1cc(C)cc(C)c1C1=C(O)C2(CCN(OC)CC2)NC1=O | 198 to 200 |
| COc1ccc2sc(C(N)=O)c(Cl)c2c1 | 220 to 222 |
| O=C(Nc1cccc(S(=O)(=O)N2CCOCC2)c1)c1cnn2c(C(F)(F)F)cc(-c3ccc(Cl)c(Cl)c3)nc12 | 239 |
| CCN(CC)C(=O)C1CCCN(C(=O)CN(C(=O)CNC(=O)Nc2cccc(C)c2)c2ccccc2)C1 (racemic) | 156 |
| COc1ccc(C=CC(=O)c2cccc(OCCCCBr)c2)cc1 | 91 to 92 |
| CN1CCC(O)(c2cnc3ccccc3c2)CC1 | 175 |
| CCCCOCCOc1ccc(-c2ccc(N3CCC(C)C3)c(C=CC(=O)O)c2)cc1 (stereo not drawn) | 136 to 139 |
| NS(=O)(=O)c1cc(C(=O)O)cc(SCc2ccsc2)c1-c1ccccc1 | 92 to 94 |
| CN1CC(CO)CC2c3cccc4c3C(CN4)CC21 (stereo not drawn) | 226 to 228 |
| CCOC(=O)c1cn2c(n1)CNc1ccccc1-2 | 206 to 208 |
| Cn1cc(-c2ccc(Oc3ccc(F)cc3F)cc2)nc1C(N)=O | 183 to 187 |
| NS(=O)(=O)c1ccc(-n2nc(CCCNC(=O)NC34CC5CC(CC(C5)C3)C4)cc2-c2ccccc2)cc1 | 139 to 144 |
| O=c1c(-c2cccc(C(F)(F)F)c2)c[nH]n1-c1ccc(F)cc1 | 171 to 173 |
| O=C(CCN1CCN(c2ncc(F)cn2)CC1)Cc1cccs1 | 77 to 78 |
| O=c1[nH]c2ccc(CCCCN3CCN(c4cccc5ccccc45)CC3)cc2o1 | 231 to 233 |
| CC(C)Cn1cnc2c(N)nc3cnccc3c21 | 306 to 307 |

| SMILES | melting point [°C] |
| --- | --- |
| CCC(CC)c1ccc(Cl)c2nc3n(c12)CCCCN3c1cnc(N(C)C)cc1C | 156 to 157 |
| CNc1ccccc1C(=O)NCCCn1ccnc1 | 138 to 141 |
| C=C1CCN(c2ccc(Cl)cc2)C1=O | 119 to 120 |
| N#Cc1ccc(-c2cc(-c3cc(C#N)ccc3Cl)on2)cc1 | 207 to 209 |
| CC(=O)NC(C)c1ccc(CN2CCN(c3ccc(F)cc3F)CC2)cc1 (stereo not drawn) | 109 to 111 |
| C=CCn1c(NCC#N)nc(N2CCc3ccccc3CC2)c(C#N)c1=O | 198 to 203 |
| Cc1ccc(S(=O)(=O)N2CCCC(S(=O)(=O)c3ccc(Cl)cc3)C2)cc1 (stereo not drawn) | 186 to 187 |
| CCCCCCC(CCC(=O)OC)n1cnc(NC(=O)c2ccccc2C(=O)O)c1 (stereo not drawn) | 135 to 136 |
| O=C(NCc1ccc([N+](=O)[O-])cc1)OCc1ccccc1 | 92 to 93 |
| COc1cc2nc(S(=O)Cc3nccc(N(C)C)c3F)[nH]c2cc1OC (stereo not drawn) | 208 to 210 |
| O=C(NCC1CCN(CC2(C(=O)O)CCOCC2)CC1)N1C(=O)C2(CCCC2)c2ccccc21 | 146 |
| CS(=O)(=O)NC(CCC(O)(Cn1cncn1)c1ccc(F)cc1F)C(=O)O (stereo not drawn) | 165 to 173 |
| CN1CCCCC1CNC(=O)Nc1cc(N2CC(c3ccccc3)CC2=O)ccn1 (stereo not drawn) | 144 to 146 |
| CCOP(=O)(Cc1ccc2nc(-c3ccc(OC)cc3)oc2c1)OCC | 86 to 88 |
| CC(C)(CCC#N)c1ccc(C(=O)Nc2cn3c4c(ccc3n2)OCC4)cc1 | 227 to 228 |
| O=C(O)C1CCc2ccccc2O1 (single isomer, unassigned; (+)) | 85.5 |
| CC(C)c1cc(CCCOc2ncccc2CC(=O)O)n(Cc2ccc(C(F)(F)F)cc2Cl)n1 | 114 to 115 |
| CC(C#Cc1ccc(C(=O)Cc2ccc(F)cc2)o1)N(O)C(N)=O (stereo not drawn) | 154 to 156 |
| C=CCn1c(=Nc2ccccc2)sc2ncccc2c1=O | 94 to 95 |
| OCCCCn1ccc(NC(=S)Nc2ccccc2)n1 | 112 to 117 |
| O=C(NCC1CCC1)NCC1CCC1 | 153 to 155 |
| O=c1oc(C(F)(F)F)nc(-c2ccccc2)c1-c1ccccc1 | 118 |
| CC1(C)COC(=O)N1c1nc(-c2ccc(Cl)c(F)c2)cs1 | 140 to 142 |
